In patent publication US9730940B2, “Purine inhibitors of human phosphatidylinositol 3-kinase delta” (priority 2012, dated 2017):

Tests used:
PI3K-delta = PI3K-delta (Homo sapiens (Human), UniProt O00329); experiment: biochemical; conditions: PI3Kdelta IC50, HTRF biochemical assay; compound form screened given
Text: HTRF PI3K Biochemical Assay to Measure Intrinsic Potency of Compound Inhibitors
The PI3-Kinase biochemical assays were developed to measure the intrinsic potency and compound dependent inhibition of the alpha, beta, delta, and gamma PI3K isoform enzymes. This assay was developed and further optimized from a kit produced by Upstate (Millipore catalog #33-047) and has been configured for HTS and SAR screening. Briefly, this procedure exploits the exquisite specificity and high affinity binding of enzyme reaction substrate phosphatidyl(3,4,5)triphosphate (PIP3) to the GRP1 pleckstrin homology (PH) domain to generate the signal. In the absence of PIP3, an HTRF (Homogeneous Time-Resolved Fluorescence energy transfer) complex is formed consisting of europium (Eu)-labeled anti-GST, GST tagged GRP1-PH domain, biotin-PIP3 and streptavidin conjugated APC. The native PIP3 produced by PI3-Kinase activity disrupts in a competitive manner the biotin-PIP3 from the PH domain, resulting in the loss of energy transfer (HTRF complex) and a decrease in the signal. The format of this assay is the same for all 4 isoforms of PI3K; the differences lie in the concentration of enzyme used to achieve robust assay window. The alpha, beta, and delta assays are run at 0.5, 1, and 0.3 nM enzymes and the gamma assay is run at 5 nM enzyme. The ATP concentration is 100 uM in the alpha, beta, and delta assays and 50 uM ATP in the gamma assay. All reactions are run at 5 uM PIP2.
Compounds are serially diluted (3-fold in 100% DMSO) across a 384-well polypropylene source plated from column 3 to column 12 and column 13 to column 22, to yield 10 concentration dose response for each test compound. Columns 1, 2, 23 and 24 contain either only DMSO or pharmacological known control inhibitor.
The PI3-Kinase biochemical assay was optimized using the HTRF kit provided by Upstate (Millipore). The assay kit contains six reagents: 1) 4× Reaction Buffer; 2) native PIP2 (substrate); 3) Stop (EDTA); 4) Detection Mix A (Streptavidin-APC); 5) Detection Mix B (Eu-labeled Anti-GST plus GST-tagged PH-domain); 6) Detection Mix C.
PI3Kinase Reaction Buffer is prepared by dilution the stock 1:4 with de-ionized water. […] Enzyme addition and compound pre-incubation are initiated by the addition of 1.25 ul of PI3K (at twice its final concentration) in the 1× reaction buffer to all wells using a BioRaptor. Plates are incubated at room temperature for 15 minutes. Reactions are initiated by addition of 1.25 ul of 2× substrate solution (PIP2 and ATP in 1× reaction buffer) using BioRaptor. Plates are incubated in humidified chamber at room temperature for one hour. Reactions are quenched by addition of 0.625 uL of stop solution to all wells using the BioRaptor. The quenched reactions are then processed to detect product formation by adding 0.625 uL of Detection Solution to all wells using the BioRaptor (Detection mix C, Detection Mix A, and Detection Mix B combined together in an 18:1:1 ratio prepared 2 hours prior to use).
The loss of the HTRF signal is due to the displacement of biotinylated-PIP3 from the PH domain by the PI3K-dependent conversion of PIP2 to PIP3. […] All data were calculated using the ratio of acceptor (APC) to donor (Europium) fluorescence in each well of the assay plate. […] An IC50 was then calculated fitting the % inhibition data to the equation: % inhibition=min+(Max−min)/1+([inhibitor]/IC50)^n) where min is the % inhibition […], max is the signal in DMSO control, and n is the Hill slope.

PI3K-alpha = PI3K-alpha (Homo sapiens (Human), UniProt P42336); experiment: HTRF PI3K biochemical assay, alpha isoform; conditions: ratio PI3K-alpha IC50 value/PI3K-delta IC50 value
PI3K-alpha, sequence (P42336 whole entry, looked up, canonical isoform): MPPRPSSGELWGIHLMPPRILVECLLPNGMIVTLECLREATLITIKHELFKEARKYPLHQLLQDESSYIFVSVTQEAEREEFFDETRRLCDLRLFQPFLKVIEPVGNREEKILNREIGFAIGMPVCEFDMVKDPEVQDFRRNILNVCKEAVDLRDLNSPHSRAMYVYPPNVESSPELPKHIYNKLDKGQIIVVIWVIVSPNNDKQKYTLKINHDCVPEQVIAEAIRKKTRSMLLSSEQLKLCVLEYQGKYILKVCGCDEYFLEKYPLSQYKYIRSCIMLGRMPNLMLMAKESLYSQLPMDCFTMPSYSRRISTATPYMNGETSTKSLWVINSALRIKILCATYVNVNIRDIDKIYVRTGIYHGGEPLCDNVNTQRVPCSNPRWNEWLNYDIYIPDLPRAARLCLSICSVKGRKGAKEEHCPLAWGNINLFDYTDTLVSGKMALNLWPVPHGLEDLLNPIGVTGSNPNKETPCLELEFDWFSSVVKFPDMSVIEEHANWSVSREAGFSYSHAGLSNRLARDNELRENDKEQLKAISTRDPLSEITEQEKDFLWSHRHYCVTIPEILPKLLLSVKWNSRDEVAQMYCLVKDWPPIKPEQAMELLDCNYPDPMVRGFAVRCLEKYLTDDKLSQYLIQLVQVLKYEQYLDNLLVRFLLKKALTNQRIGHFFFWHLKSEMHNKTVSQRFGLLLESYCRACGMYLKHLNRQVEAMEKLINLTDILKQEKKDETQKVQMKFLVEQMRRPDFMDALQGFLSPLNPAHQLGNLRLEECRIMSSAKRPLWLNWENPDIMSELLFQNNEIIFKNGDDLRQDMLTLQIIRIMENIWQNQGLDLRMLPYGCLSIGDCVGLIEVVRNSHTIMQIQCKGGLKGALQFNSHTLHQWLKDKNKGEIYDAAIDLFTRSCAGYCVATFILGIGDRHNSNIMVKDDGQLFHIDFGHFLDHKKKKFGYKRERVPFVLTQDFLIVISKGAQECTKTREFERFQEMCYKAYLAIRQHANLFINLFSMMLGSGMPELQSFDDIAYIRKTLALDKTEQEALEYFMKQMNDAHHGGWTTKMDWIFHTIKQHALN
PI3K-alpha, sequence (P27986 whole entry partner, looked up, canonical isoform): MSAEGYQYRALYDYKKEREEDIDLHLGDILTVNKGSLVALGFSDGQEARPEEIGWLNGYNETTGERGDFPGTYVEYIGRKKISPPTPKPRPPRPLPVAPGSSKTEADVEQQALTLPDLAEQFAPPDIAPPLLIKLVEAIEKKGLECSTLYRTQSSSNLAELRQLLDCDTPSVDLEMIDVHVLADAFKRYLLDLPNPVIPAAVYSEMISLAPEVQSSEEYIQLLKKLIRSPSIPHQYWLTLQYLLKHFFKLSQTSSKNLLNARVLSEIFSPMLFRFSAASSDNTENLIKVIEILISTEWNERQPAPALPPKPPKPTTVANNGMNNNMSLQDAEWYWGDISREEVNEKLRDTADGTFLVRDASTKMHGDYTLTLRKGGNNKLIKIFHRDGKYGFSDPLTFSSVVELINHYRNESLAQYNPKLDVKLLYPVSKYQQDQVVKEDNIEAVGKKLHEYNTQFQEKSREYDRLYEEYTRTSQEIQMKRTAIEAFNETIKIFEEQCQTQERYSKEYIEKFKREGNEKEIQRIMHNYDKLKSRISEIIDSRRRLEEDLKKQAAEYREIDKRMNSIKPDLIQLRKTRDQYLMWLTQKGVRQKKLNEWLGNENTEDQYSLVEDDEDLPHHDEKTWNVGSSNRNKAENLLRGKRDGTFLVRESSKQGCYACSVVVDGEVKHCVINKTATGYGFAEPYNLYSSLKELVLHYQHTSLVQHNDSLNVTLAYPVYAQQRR

PI3K-delta, sequence (O00329 whole entry, looked up): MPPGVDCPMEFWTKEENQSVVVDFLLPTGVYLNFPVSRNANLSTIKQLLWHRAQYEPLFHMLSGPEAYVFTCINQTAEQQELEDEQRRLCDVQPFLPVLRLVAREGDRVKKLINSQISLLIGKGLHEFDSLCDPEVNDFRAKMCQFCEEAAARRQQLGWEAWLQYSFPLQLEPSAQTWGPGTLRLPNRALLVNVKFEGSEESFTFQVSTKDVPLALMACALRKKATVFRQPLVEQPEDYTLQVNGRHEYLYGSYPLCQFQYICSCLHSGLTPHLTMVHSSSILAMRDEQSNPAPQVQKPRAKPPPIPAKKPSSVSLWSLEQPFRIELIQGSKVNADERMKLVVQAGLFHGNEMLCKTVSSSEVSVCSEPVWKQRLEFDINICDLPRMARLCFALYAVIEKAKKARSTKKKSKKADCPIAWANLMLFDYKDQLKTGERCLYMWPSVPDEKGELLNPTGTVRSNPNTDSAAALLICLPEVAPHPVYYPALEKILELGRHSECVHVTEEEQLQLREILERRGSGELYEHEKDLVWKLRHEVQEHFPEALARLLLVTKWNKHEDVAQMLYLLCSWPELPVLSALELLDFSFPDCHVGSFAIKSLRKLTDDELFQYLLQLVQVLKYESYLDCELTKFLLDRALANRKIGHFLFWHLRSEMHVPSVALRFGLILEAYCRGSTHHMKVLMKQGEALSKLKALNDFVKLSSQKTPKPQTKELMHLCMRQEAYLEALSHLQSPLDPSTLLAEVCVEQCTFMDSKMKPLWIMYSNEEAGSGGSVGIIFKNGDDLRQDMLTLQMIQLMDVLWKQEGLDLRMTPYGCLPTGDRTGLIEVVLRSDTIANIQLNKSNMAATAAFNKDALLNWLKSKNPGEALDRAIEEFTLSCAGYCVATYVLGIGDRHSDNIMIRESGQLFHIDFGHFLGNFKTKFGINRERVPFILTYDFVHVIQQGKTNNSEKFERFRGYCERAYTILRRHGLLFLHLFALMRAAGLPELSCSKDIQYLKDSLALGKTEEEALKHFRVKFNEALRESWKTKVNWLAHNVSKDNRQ
PI3K-delta, sequence (P27986 whole entry partner, looked up): as the sequence (P27986 whole entry partner, looked up, canonical isoform) above

SMILES | IC50 (PI3K-delta) [nM] | Relative Selectivity versus PI3Kalpha (PI3K-alpha)
CCn1c(-c2cnc(C)nc2)nc2c(O[C@@H]3CN(C(=O)C4CC4)CC3(C)C)ncnc21 (racemic) [Compound 3-62, racemic-6-{[1-(cyclopropylcarbonyl)-4,4-dimethylpyrrolidin-3-yl]oxy}-9-ethyl-8-(2-methylpyrimidin-5-yl)-9H-purine] | 2.3 | >10
CCn1c(-c2cnc(C)nc2)nc2c(O[C@H]3CCN(C(=O)C4CC45CCCC5)C3)ncnc21 (single isomer, unassigned) [Compound 2-122, 9-ethyl-8-(2-methylpyrimidin-5-yl)-6-{[(3S)-1-((R or S)-spiro[2.4]hept-1-ylcarbonyl)pyrrolidin-3-yl]oxy}-9H-purine] | 16 | >10
CCn1c(-c2cnc(C)nc2)nc2c(O[C@H]3CCN(C(=O)C4CC45CCCC5)C3)ncnc21 (single isomer, unassigned) [Compound 2-123, 9-ethyl-8-(2-methylpyrimidin-5-yl)-6-{[(3S)-1-((R or S)-spiro[2.4]hept-1-ylcarbonyl)pyrrolidin-3-yl]oxy}-9H-purine] | < 1 | >10
CCn1c(-c2cnc(C)nc2)nc2c(O[C@H]3CCN(C(=O)N4CCC4C)C3)ncnc21 (single isomer, unassigned) [Compound 5-15, 9-ethyl-6-({(3S)-1-[((2R or 2S)-methylazetidin-1-yl)carbonyl]pyrrolidin-3-yl}oxy)-8-(2-methylpyrimidin-5-yl)-9H-purine] | 6.2 | >10
CCn1c(-c2cnc(C)nc2)nc2c(O[C@H]3CCN(C(=O)N4CCC4C)C3)ncnc21 (single isomer, unassigned) [Compound 5-16, 9-ethyl-6-({(3S)-1-[((2R or 2S)-methylazetidin-1-yl)carbonyl]pyrrolidin-3-yl}oxy)-8-(2-methylpyrimidin-5-yl)-9H-purine] | 16 | >10
